Measurements: patent US20030170250A1, “Local delivery of long lasting therapeutic agents” (priority 1998, published 2003)

System: carotid artery
Assay: In vivo addition of NHS-Rhodamine: local incubation in isolated carotid artery chamber, fluorescence of the artery
Parameters: species or system New Zealand rabbits
Details: 100 μl of 500 μM, 3 minutes incubation in 1-cm chamber, washed with 0.9% sodium chloride
Experimental: Both carotid arteries were isolated and blood flows were measured. A catheter (22G) was inserted in the arterial segment and rinsed with 0.9% sodium chloride via catheter until there was no more visible evidence of blood in the segment.
A 1-cm incubation chamber was created by ligatures in the segment area. The incubation chamber was flushed three times with 1 mL of 0.9% sodium chloride. A solution of 100 μl of 500 μM NHS-Rhodamine was prepared and incubated in the incubation chamber for 3 minutes. The excess of rhodamine was withdrawn with a 1 mL syringue. The incubation chamber was washed once again with 3 times […] of 0.9% sodium chloride. The incubation chamber was then removed from the rabbit, cut in three pieces and dipped in 10% formalin for further evaluation.

Row | Substance | fluorescence of treated arteries
1 | Rhodamine | little fluorescence over background
2 | Rhodamine Green™-X, succinimidyl ester, hydrochloride mixed isomers [NHS-Rhodamine] | dramatic levels of fluorescence
